The term IC50 denotes the concentration at which inhibition is half-maximal. Higher therefore signals a need for much substance.

Results on 20 molecules are retold here after patent publication US11466034B2, “Compound functioning as bromodomain protein inhibitor, and composition” (Betta Pharmaceuticals Co., Ltd., priority 2017, dated 2022).

A value given as a limit tells only on which side of the number the result lay.

One assay addresses BRD4(D1) (Homo sapiens (Human), UniProt O60885). The assay can be described thus: Inhibitory activity against BRD4(D1), HTRF assay. The assay is classed as binding. As to the method: (§1) (+)-JQ1 was used as comparison compound, to evaluated the inhibitory activity of compounds of the invention against BRD4(D1) and BRD4(D2) in vitro.
(§2) The assays of BRD4 (D1) and BRD4 (D2) were conducted in a 384-well polystyrene plate. The test compounds were first serially diluted in DMSO and the test compound/DMSO were transferred to 384-well plates. The final concentration of DMSO in the assay was 0.1%. 2 volumes of protein/peptide mixture were added into 384-well plates, then 2 volumes of assay mixture were added, and shake for 30 s. The plate was incubated at room temperature for 2 h. Then the HTRF signal on EnVision was readed.
(§3) Use equation (1) to fit the date in Excel to obtain the value of the inhibition rate. Inhibition rate (%)=(maximum value−signal value)/(maximum value−minimum value)*100 Equation(1):
(§4) IC50 determination was performed by fitting the data using GraphPad Prism 5.0 software and equation (2). Y=bottom+(Top−bottom)/(1+10^((Log IC50−X)*HillSlope)); Equation(2): wherein, Y represents the percentage of inhibition (%); X represents the concentration of test compounds.
(§5) The IC50 data of the examples were provided in the following table, wherein, A stands for IC50<100 nM; B stands for IC50 is 100-300 nM; C stands for IC50>300 nM.
On the technique in general: TR-FRET usually uses a lanthanide donor and a delayed reading to cut background.

The next assay has as its target BRD4(D2) (Homo sapiens (Human), UniProt O60885). The assay can be described thus: Inhibitory activity against BRD4(D2), HTRF assay. The format is binding. As to the method: as §1, §2, §3, §4, §5

As for `CCS(=O)(=O)Nc1cc(-c2cn(C)c(=O)c3[nH]ccc23)cc2c1nc(C)n2Cc1ccccc1` [Example 45, N-(1-benzyl-2-methyl-6-(6-methyl-7-oxo-6,7-dihydro-1H-pyrrolo[2,3-c]pyridin-4-yl)-1H-benzo[d]imidazol-4-yl)ethanesulfonamide], the IC50 against BRD4(D1) (class symbols) and at BRD4(D2) (class symbols) was < 100 nM in each case.

Consider `CCS(=O)(=O)Nc1cc(-c2cn(C)c(=O)c3[nH]ccc23)cc2c1nc(C)n2Cc1cccc(C(F)(F)F)c1` [Example 46, N-(2-methyl-6-(6-methyl-7-oxo-6,7-dihydro-1H-pyrrolo[2,3-c]pyridin-4-yl)-1-(3-(trifluoromethyl)benzyl)-1H-benzo[d]imidazol-4-yl)ethanesulfonamide], for which the IC50 against BRD4(D1) (class symbols) and at BRD4(D2) (class symbols) was < 100 nM throughout.

Take `CCS(=O)(=O)Nc1cc(-c2cn(C)c(=O)c3[nH]ccc23)cc2c1nc(C)n2Cc1cc(C(F)(F)F)ccc1F` [Example 47, N-(2-methyl-6-(6-methyl-7-oxo-6,7-dihydro-1H-pyrrolo[2,3-c]pyridin-4-yl)-1-(2-fluoro-5-(trifluoromethyl)benzyl)-1H-benzo[d]imidazol-4-yl)ethanesulfonamide]: the IC50 at BRD4(D1) (class symbols) and against BRD4(D2) (class symbols) was < 100 nM in each case.

As to `CCS(=O)(=O)Nc1cc(-c2cn(C)c(=O)c3[nH]ccc23)cc2c1nc(C)n2Cc1cc(F)cc(C(F)(F)F)c1` [Example 48, N-(2-methyl-6-(6-methyl-7-oxo-6,7-dihydro-1H-pyrrolo[2,3-c]pyridin-4-yl)-1-(3-fluoro-5-(trifluoromethyl)benzyl)-1H-benzo[d]imidazol-4-yl)ethanesulfonamide], the IC50 against BRD4(D1) (class symbols) and against BRD4(D2) (class symbols) was < 100 nM in each case.

On to `CCS(=O)(=O)Nc1cc(-c2cn(C)c(=O)c3[nH]ccc23)cc2c1nc(C)n2Cc1ccc(Cl)cc1F` [Example 49, N-(2-methyl-6-(6-methyl-7-oxo-6,7-dihydro-1H-pyrrolo[2,3-c]pyridin-4-yl)-1-(2-fluoro-4-chlorobenzyl)-1H-benzo[d]imidazol-4-yl)ethanesulfonamide], for which the IC50 at BRD4(D1) (class symbols) and on BRD4(D2) (class symbols) was < 100 nM each time.

Turning to `CCS(=O)(=O)Nc1cc(-c2cn(C)c(=O)c3[nH]ccc23)cc2c1nc(C)n2Cc1ccc(Cl)c(C(F)(F)F)c1` [Example 50, N-(2-methyl-6-(6-methyl-7-oxo-6,7-dihydro-1H-pyrrolo[2,3-c]pyridin-4-yl)-1-(3-(trifluoromethyl)-4chlorobenzyl)-1H-benzo[d]imidazol-4-yl)ethanesulfonamide], the IC50 at BRD4(D1) (class symbols) and on BRD4(D2) (class symbols) was < 100 nM in each case.

As for `CCS(=O)(=O)Nc1cc(-c2cn(C)c(=O)c3[nH]ccc23)cc2c1nc(C)n2Cc1ccc(C(F)(F)F)c(F)c1` [Example 51, N-(2-methyl-6-(6-methyl-7-oxo-6,7-dihydro-1H-pyrrolo[2,3-c]pyridin-4-yl)-1-(3-fluoro-4-(trifluoromethyl)benzyl)-1H-benzo[d]imidazol-4-yl)ethanesulfonamide], the IC50 on BRD4(D1) (class symbols) and against BRD4(D2) (class symbols) was < 100 nM each time.

Regarding `CCS(=O)(=O)Nc1cc(-c2cn(C)c(=O)c3[nH]ccc23)cc2c1nc(C)n2Cc1ccc(C(F)(F)F)c(Cl)c1` [Example 52, N-(2-methyl-6-(6-methyl-7-oxo-6,7-dihydro-1H-pyrrolo[2,3-c]pyridin-4-yl)-1-(3-chloro-4-(trifluoromethyl)benzyl)-1H-benzo[d]imidazol-4-yl)ethanesulfonamide], the IC50 on BRD4(D1) (class symbols) and at BRD4(D2) (class symbols) was < 100 nM each time.

`CCS(=O)(=O)Nc1cc(-c2cn(C)c(=O)c3[nH]ccc23)cc2c1nc(C)n2Cc1cccc(Cl)c1` [Example 53, N-(2-methyl-6-(6-methyl-7-oxo-6,7-dihydro-1H-pyrrolo[2,3-c]pyridin-4-yl)-1-(3-chlorobenzyl)-1H-benzo[d]imidazol-4-yl)ethanesulfonamide]: the IC50 at BRD4(D1) (class symbols) and on BRD4(D2) (class symbols) was < 100 nM each time.

In the case of `CCS(=O)(=O)Nc1cc(-c2cn(C)c(=O)c3[nH]ccc23)cc2c1nc(C)n2Cc1ccc(Br)cc1` [Example 55, N-(2-methyl-6-(6-methyl-7-oxo-6,7-dihydro-1H-pyrrolo[2,3-c]pyridin-4-yl)-1-(4-bromobenzyl)-1H-benzo[d]imidazol-4-yl)ethanesulfonamide], the IC50 on BRD4(D1) (class symbols) and against BRD4(D2) (class symbols) was < 100 nM in each case.

Consider `CCS(=O)(=O)Nc1cc(-c2cn(C)c(=O)c3[nH]ccc23)cc2c1nc(C)n2Cc1ccc(S(C)(=O)=O)cc1` [Example 56, N-(2-methyl-6-(6-methyl-7-oxo-6,7-dihydro-1H-pyrrolo[2,3-c]pyridin-4-yl)-1-(4-(methylsulfonyl)benzyl)-1H-benzo[d]imidazol-4-yl)ethanesulfonamide], for which the IC50 against BRD4(D1) (class symbols) and against BRD4(D2) (class symbols) was < 100 nM each time.

As for `CCS(=O)(=O)Nc1cc(-c2cn(C)c(=O)c3[nH]ccc23)cc2c1nc(C)n2Cc1ccc(F)cc1Cl` [Example 57, N-(1-(2-chloro-4-fluorobenzyl)-2-methyl-6-(6-methyl-7-oxo-6,7-dihydro-1H-pyrrolo[2,3-c]pyridin-4-yl)-1H-benzo[d]imidazol-4-yl)ethanesulfonamide], the IC50 against BRD4(D1) (class symbols) and at BRD4(D2) (class symbols) was < 100 nM in each case.

Take `CCS(=O)(=O)Nc1cc(-c2cn(C)c(=O)c3[nH]ccc23)nc2c1ncn2C(C)c1ccc(Cl)cc1` (stereo not shown) [Example 60, N-(3-(1-(4-chlorophenyl)ethyl)-5-(6-methyl-7-oxo-6,7-dihydro-1H-pyrrolo[2,3-c]pyridin-4-yl)-3H-imidazo[4,5-b]pyridin-7-yl)ethanesulfonamide]: the IC50 on BRD4(D1) (class symbols) and on BRD4(D2) (class symbols) was 100 to 300 nM each time.

`CCS(=O)(=O)Nc1cc(-c2cn(C)c(=O)c3[nH]ccc23)nc2c1ncn2Cc1cc(C(F)(F)F)ccc1F` [Example 61, N-(3-(2-fluoro-5-(trifluoromethyl)benzyl)-5-(6-methyl-7-oxo-6,7-dihydro-H-pyrrolo[2,3-c]pyridin-4-yl)-3H-imidazo[4,5-b]pyridin-7-yl)ethanesulfonamide]: the IC50 on BRD4(D1) (class symbols) and against BRD4(D2) (class symbols) was < 100 nM each time.

With `CCS(=O)(=O)Nc1cc(-c2cn(C)c(=O)c3[nH]ccc23)nc2c1ncn2Cc1cc(F)cc(F)c1` [Example 62, N-(3-(3,5-difluorobenzyl)-5-(6-methyl-7-oxo-6,7-dihydro-H-pyrrolo[2,3-c]pyridin-4-yl)-3H-imidazo[4,5-b]pyridin-7-yl)ethanesulfonamide], the IC50 against BRD4(D1) (numeric values) was 1.3 nM; against BRD4(D2) (numeric values), 1.2 nM.

On to `CCS(=O)(=O)Nc1cc(-c2cn(C)c(=O)c3[nH]ccc23)nc2c1ncn2Cc1ccccc1C(F)(F)F` [Example 63, N-(5-(6-methyl-7-oxo-6,7-dihydro-H-pyrrolo[2,3-c]pyridin-4-yl)-3-(2-(trifluoromethyl)benzyl)-3H-imidazo[4,5-b]pyridin-7-yl)ethanesulfonamide], for which the IC50 at BRD4(D1) (class symbols) and on BRD4(D2) (class symbols) was < 100 nM each time.

For the molecule `CCS(=O)(=O)Nc1cc(-c2cn(C)c(=O)c3[nH]ccc23)nc2c1nc(C)n2Cc1ccc(C(F)(F)F)cc1` [Example 65, N-(2-methyl-5-(6-methyl-7-oxo-6,7-dihydro-1H-pyrrolo[2,3-c]pyridin-4-yl)-3-(4-(trifluoromethyl)benzyl)-3H-imidazo[4,5-b]pyridin-7-yl)ethanesulfonamide], the IC50 at BRD4(D1) (class symbols) and at BRD4(D2) (class symbols) was < 100 nM in each case.

On to `CCS(=O)(=O)Nc1cc(-c2cn(C)c(=O)c3[nH]ccc23)nc2c1nc(C)n2Cc1ccccc1C(F)(F)F` [Example 66, N-(2-methyl-5-(6-methyl-7-oxo-6,7-dihydro-1H-pyrrolo[2,3-c]pyridin-4-yl)-3-(2-(trifluoromethyl)benzyl)-3H-imidazo[4,5-b]pyridin-7-yl)ethanesulfonamide], for which the IC50 against BRD4(D1) (class symbols) and against BRD4(D2) (class symbols) was < 100 nM throughout.

As to `CCS(=O)(=O)Nc1cc(-c2cn(C)c(=O)c3[nH]ccc23)nc2c1nc(C)n2Cc1cc(F)cc(F)c1` [Example 67, N-(3-(3,5-difluorobenzyl)-2-methyl-5-(6-methyl-7-oxo-6,7-dihydro-H-pyrrolo[2,3-c]pyridin-4-yl)-3H-imidazo[4,5-b]pyridin-7-yl)ethanesulfonamide], the IC50 on BRD4(D1) (class symbols) and on BRD4(D2) (class symbols) was < 100 nM throughout.

Regarding `CCS(=O)(=O)Nc1cc(-c2cn(C)c(=O)c3[nH]ccc23)nc2c1nc(C)n2Cc1c(C)cccc1C` [Example 68, N-(3-(2,6-dimethylbenzyl)-2-methyl-5-(6-methyl-7-oxo-6,7-dihydro-1H-pyrrolo[2,3-c]pyridin-4-yl)-3H-imidazo[4,5-b]pyridin-7-yl)ethanesulfonamide], the IC50 at BRD4(D1) (class symbols) and against BRD4(D2) (class symbols) was < 100 nM in each case.
